We go through 4 compounds from patent US11999759B2, “Boronic acid derivatives and therapeutic uses thereof” (Qpex Biopharma, Inc., priority 2016, dated 2024).

Assay [1] relates to KP1005 (CTX-M-14). As to the kind of experiment: Tigemonam potentiation (MPC@4), strain KP1005. Conditions: strain KP1005 (CTX-M-14), tigemonam alone.
The test system of assay [2] is ECL1002. As to the kind of experiment: Tigemonam potentiation (MPC@4), strain ECL1002. The conditions noted are these: strain ECL1002, tigemonam alone. It is filed as cell-based.
Assay [3] has as its system ec308 (SHV-5). As to the kind of experiment: Tigemonam potentiation (MPC@4), strain ec308. Type of assay: cell-based. The conditions noted are these: strain ec308 (SHV-5), tigemonam alone.
Assay [4] deals with KP1009 (CTX-M-15). As to the kind of experiment: Tigemonam potentiation (MPC@4), strain KP1009. Conditions: strain KP1009 (CTX-M-15), tigemonam alone.
Assay [5] deals with KP1010 (SHV-12). As to the kind of experiment: Tigemonam potentiation (MPC@4), strain KP1010. The conditions noted are these: strain KP1010 (SHV-12), tigemonam alone.
For assay [6], the system named is ec302 (TEM-10). Description: Tigemonam potentiation (MPC@4), strain ec302. It is filed as cell-based. Conditions: strain ec302 (TEM-10), tigemonam alone.
The test system of assay [7] is EC1010 (CMY-6). Description: Tigemonam potentiation (MPC@4), strain EC1010. The conditions noted are these: strain EC1010 (CMY-6), tigemonam alone. It is filed as cell-based.
Assay [8] has as its system EC1010 (CMY-6). Description: Aztreonam potentiation (MPC@4), strain EC1010. The conditions noted are these: read-out: Aztreonam MIC.
In assay [9] the test system is KP1005 (CTX-M-14). As to the kind of experiment: Aztreonam potentiation (MPC@4), strain KP1005. The conditions noted are these: read-out: Aztreonam MIC.
In assay [10] the test system is ECL1002. As to the kind of experiment: Aztreonam potentiation (MPC@4), strain ECL1002. Conditions: read-out: Aztreonam MIC.
Assay [11] concerns KP1009 (CTX-M-15). Description: Aztreonam potentiation (MPC@4), strain KP1009. Conditions: read-out: Aztreonam MIC.
For assay [12], the system named is KP1010 (SHV-12). Description: Aztreonam potentiation (MPC@4), strain KP1010. The conditions noted are these: read-out: Aztreonam MIC.
The test system of assay [13] is KP1004 (KPC-2). Description: Aztreonam potentiation (MPC@4), strain KP1004. The conditions noted are these: read-out: Aztreonam MIC.
For assay [14], the system named is ec308 (SHV-5). Description: Aztreonam potentiation (MPC@4), strain ec308. Conditions: read-out: Aztreonam MIC.
For assay [15], the system named is ec302 (TEM-10). As to the kind of experiment: Aztreonam potentiation (MPC@4), strain ec302. The conditions noted are these: read-out: Aztreonam MIC.
The next assay deals with AB1054 (OXA-23). As to the kind of experiment: Meropenem potentiation (MPC@8), strain AB1054. The conditions noted are these: Acinetobacter baumannii, read-out: Meropenem MIC. It is filed as cell-based.
A further assay has as its system AB1053 (OXA-72). As to the kind of experiment: Meropenem potentiation (MPC@8), strain AB1053. Type of assay: cell-based. Conditions: Acinetobacter baumannii; strain AB1053 (OXA-72), meropenem alone.
In assay [16] the test system is PAM1032/KPC-2 (overexpressed MexAB-OprM). As to the kind of experiment: Biapenem potentiation (MPC64) in PAM1032/KPC-2. It is filed as cell-based, Pseudomonas aeruginosa. Conditions: Pseudomonas aeruginosa; PAM1032/KPC-2, biapenem alone. In short, it runs like this: (§1)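 KPC-2 plasmid-expressing P. aeruginosa strains were used to measure BLI potentiation of biapenem as MPC64. The PAM1032/KPC-2 to PAM1154/KPC-2 MPC64 ratio gave the Efflux Index.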

The subject of assay [17] is PAM1154/KPC-2 (lacked MexAB-OprM). Description: Biapenem potentiation (MPC64) in PAM1154/KPC-2. Conditions: Pseudomonas aeruginosa; PAM1154/KPC-2, biapenem alone. It is filed as cell-based, Pseudomonas aeruginosa. In short, it runs like this: as §1
In assay [18] the test system is KP1004 (KPC-2). Description: Biapenem potentiation (MPC@1), strain KP1004. Type of assay: cell-based. The conditions noted are these: strain KP1004 (KPC-2), biapenem alone. The text has this: (§2) Biapenem was present in the test medium at 1 Dg/mL. […] Table 4 summarizes the BLI potency of biapenem potentiation (MPC@1) for two strains overexpressing class A (KPC) and class D (OXA-48) carbapenemases. Biapenem MIC for each strain is also shown.

A further assay concerns KP1086 (OXA-48). As to the kind of experiment: Biapenem potentiation (MPC@1), strain KP1086. Type of assay: cell-based. The conditions noted are these: strain KP1086 (OXA-48), biapenem alone.
Excerpt: as §2

For the next assay, the system named is KP1081 (NDM-1). As to the kind of experiment: Biapenem potentiation (MPC@1), strain KP1081. It is filed as cell-based. Conditions: strain KP1081 (NDM-1), biapenem alone.
The next assay deals with KP1054 (VIM-1). Description: Biapenem potentiation (MPC@1), strain KP1054. Type of assay: cell-based. The conditions noted are these: strain KP1054 (VIM-1), biapenem alone.

For the compound `CC1(C)[C@H](NC(=O)/C(=N\OCC(=O)O)c2csc(N)n2)C(=O)N1OS(=O)(=O)O` [Tigemonam], the “Tigemonam MIC” value was above 64 µg/mL with KP1005 (CTX-M-14) [1]; 32 µg/mL with ECL1002 [2]; above 64 µg/mL with ec308 (SHV-5) [3]; above 64 µg/mL in the assay with KP1009 (CTX-M-15) [4]; above 64 µg/mL in the assay on KP1010 (SHV-12) [5]; above 64 µg/mL with ec302 (TEM-10) [6]. In addition, the “Tigemonam MIC” value in the assay on EC1010 (CMY-6) [7] stood at 16 µg/mL.
As for `C[C@H]1[C@H](NC(=O)/C(=N\OC(C)(C)C(=O)O)c2csc(N)n2)C(=O)N1S(=O)(=O)O` [Aztreonam], the MIC in the assay with EC1010 (CMY-6) [8] is above 128 µg/mL; in the assay on KP1005 (CTX-M-14) [9], above 128 µg/mL; in the assay with ECL1002 [10], 64 µg/mL; in the assay with KP1009 (CTX-M-15) [11] it was above 128 µg/mL; in the assay with KP1010 (SHV-12) [12] it was 64 µg/mL; in the assay on KP1004 (KPC-2) [13], above 128 µg/mL. Besides, the figures for the MIC with ec308 (SHV-5) [14] and with ec302 (TEM-10) [15] were above 128 µg/mL and 128 µg/mL, respectively.
On to `C[C@@H](O)[C@H]1C(=O)N2C(C(=O)O)=C(S[C@@H]3CN[C@H](C(=O)N(C)C)C3)[C@H](C)[C@H]12` [Meropenem], for which the values for the minimal inhibitory concentration (MIC) with AB1054 (OXA-23) and in the assay with AB1053 (OXA-72) were 32 µg/mL and above 64 µg/mL, respectively.
Consider `C[C@@H](O)[C@H]1C(=O)N2C(C(=O)[O-])=C(SC3Cn4cnc[n+]4C3)[C@H](C)[C@H]12` (some centres unmarked) [Biapenem], for which the MIC stood at 32 µg/mL in assay [16]; 32 µg/mL in assay [17]; 32 µg/mL in the assay on KP1004 (KPC-2) [18]; 16 µg/mL with KP1086 (OXA-48); 16 µg/mL with KP1081 (NDM-1); 16 µg/mL in the assay on KP1054 (VIM-1).
